What was measured:
[1] = system: tissues of the injected area (rat paw); assay: H&E staining histological test (inflammation) of injected rat paw; assay type: in vivo, Sprague Dawley rats; conditions: for Inflammation (H&E), BA % (w/v) 1.0: bile acid single composition 1.0% (w/v); for degree of inflammation (H&E) in words: rats sacrificed at 3 hours, injected paw
Experimental: The tissues of the injected area were dissected, fixed with 10% formalin, and then the specimen was prepared and images were captured using an optical microscope. The degree of inflammation was evaluated as follows.

[2] = Formulation stability of PPC injectable preparations: property, transparency, particle size, pH; conditions: for bile acid/PPC molar ratio below which a substantially stable formulation did not occur: PPC 5.0%; for bile acid concentration at which stable injectable preparations can be made: based on PPC 5.0%
paw of the rats = assay: Rat paw edema; assay type: in vivo, Sprague Dawley rats; conditions: for degree of edema in words: 2 hours after administration, rat paw; for degree of edema, 1 hour after administration / degree of edema, 2 hours after administration / degree of edema, Immediately after administration: 0.1 ml into rat paw
Experimental: (§1) To evaluate the degree of edema, each test compositions described above were injected into the paw of the rats. Specifically, male Sprague Dawley rats (6 weeks old) were purchased and used after one week of adaptation. The rats (body weight: 170˜200 g) were randomly selected and the thickness of the rat paw were measured with a caliper before the administration of the test compositions. In order to observe the edema, 0.1 ml of PBS and the various test compositions were administered to the paws of the rats. Measurements of the […] were performed by a caliper immediately before the injection, immediately after the injection, and 1 or 2 hours after the injection. In addition, when the thickness was measured, the skin lesion of the injection site was observed by photographing the sole of the paw (using a 4×4 cm scale).
The degree of edema was evaluated as 0 to 4 grades.

sole of the rat paws = assay: Measurement of skin lesion (erythema) on rat paw; assay type: in vivo, Sprague Dawley rats; conditions: for skin lesion (erythema) in words: 2 hours after administration;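 on grade of skin lesion (erythema), 1 hour after administration: grades − to ++++ mean no to extremely severe erythema versus before injection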;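 on grade of skin lesion (erythema), 2 hours after administration: grades − to ++++ mean no to extremely severe erythema versus before injection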;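 on grade of skin lesion (erythema), Immediately after administration: grades − to ++++ mean no to extremely severe erythema versus before injection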
Experimental: as §1
The grades of skin lesion were evaluated as 0 to 4 grades.

[3] = bile acid single composition 1.0% (w/v)
[4] = bile acid single composition 2.5% (w/v)
[5] = bile acid single composition 5.0% (w/v)
[6] = bile acid single composition 7.5% (w/v)

Row | Structure (SMILES) | Inflammation (H&E), BA % (w/v) 1.0 ([1]; injected rat paw) | bile acid/PPC molar ratio below which a substantially stable formulation did not occur [2] | bile acid concentration at which stable injectable preparations can be made [2] | degree of edema, 1 hour after administration (paw of the rats; [3]) | degree of edema, 2 hours after administration (paw of the rats; [3]) | degree of edema, Immediately after administration (paw of the rats; [3]) | degree of edema, 1 hour after administration (paw of the rats; [4]) | degree of edema, 2 hours after administration (paw of the rats; [4]) | degree of edema, Immediately after administration (paw of the rats; [4]) | degree of edema, 1 hour after administration (paw of the rats; [5]) | degree of edema, 2 hours after administration (paw of the rats; [5]) | degree of edema, Immediately after administration (paw of the rats; [5]) | degree of edema, 1 hour after administration (paw of the rats; [6]) | degree of edema, 2 hours after administration (paw of the rats; [6]) | degree of edema, Immediately after administration (paw of the rats; [6]) | grade of skin lesion (erythema), 1 hour after administration (sole of the rat paws; [3]) | grade of skin lesion (erythema), 2 hours after administration (sole of the rat paws; [3]) | grade of skin lesion (erythema), Immediately after administration (sole of the rat paws; [3]) | grade of skin lesion (erythema), 1 hour after administration (sole of the rat paws; [4]) | grade of skin lesion (erythema), 2 hours after administration (sole of the rat paws; [4]) | also measured
1 | C[C@H](CCC(=O)O)[C@H]1CC[C@H]2[C@@H]3[C@@H](O)C[C@@H]4C[C@H](O)CC[C@]4(C)[C@H]3CC[C@]12C [UDCA, (4R)-4-[(3R,5S,7S,8R,9S,10S,13R,14S,17R)-3,7-dihydroxy-10,13-dimethyl-2,3,4,5,6,7,8,9,11,12,14,15,16,17-tetradecahydro-1H-cyclopenta[a]phenanthren-17-yl]pentanoic acid] | +++ | less than 1.12 | ≥ 2.7% | ++ (moderate edema [++, (the degree of swelling was 20-40% compared to before the injection)]) | ++ (moderate edema [++, (the degree of swelling was 20-40% compared to before the injection)]) | ++ (moderate edema [++, (the degree of swelling was 20-40% compared to before the injection)]) | +++ (severe edema [+++, (the degree of swelling was 40-60% compared to before the injection)]) | ++++ (extremely severe edema [++++, (the degree of swelling was 60% or more compared to before the injection)]) | ++ (moderate edema [++, (the degree of swelling was 20-40% compared to before the injection)]) | ++++ (extremely severe edema [++++, (the degree of swelling was 60% or more compared to before the injection)]) | ++++ (extremely severe edema [++++, (the degree of swelling was 60% or more compared to before the injection)]) | ++ (moderate edema [++, (the degree of swelling was 20-40% compared to before the injection)]) | ++++ (extremely severe edema [++++, (the degree of swelling was 60% or more compared to before the injection)]) | ++++ (extremely severe edema [++++, (the degree of swelling was 60% or more compared to before the injection)]) | ++ (moderate edema [++, (the degree of swelling was 20-40% compared to before the injection)]) | ++ | ++ | + | ++ | +++ | degree of edema in words (paw of the rats; listed as UDCA 1.0%): moderate; degree of edema in words (paw of the rats; listed as UDCA 2.5%): “severe” and “extremely severe”; skin lesion (erythema) in words (sole of the rat paws; listed as UDCA 1.0%): Moderate; skin lesion (erythema) in words (sole of the rat paws; listed as UDCA 2.5%): “severe” and “extremely severe”; grade of skin lesion (erythema), Immediately after administration (sole of the rat paws; [4]): ++; grade of skin lesion (erythema), 1 hour after administration (sole of the rat paws; [5]): ++++; grade of skin lesion (erythema), 2 hours after administration (sole of the rat paws; [5]): ++++; grade of skin lesion (erythema), Immediately after administration (sole of the rat paws; [5]): ++; grade of skin lesion (erythema), 1 hour after administration (sole of the rat paws; [6]): ++++; grade of skin lesion (erythema), 2 hours after administration (sole of the rat paws; [6]): ++++; grade of skin lesion (erythema), Immediately after administration (sole of the rat paws; [6]): ++
2 | C[C@H](CCC(=O)O)[C@H]1CC[C@H]2[C@@H]3[C@H](O)C[C@@H]4C[C@H](O)CC[C@]4(C)[C@H]3CC[C@]12C [CDCA] | ++ | less than 0.89 | ≥ 2.2% | +++ (severe edema [+++, (the degree of swelling was 40-60% compared to before the injection)]) | +++ (severe edema [+++, (the degree of swelling was 40-60% compared to before the injection)]) | ++ (moderate edema [++, (the degree of swelling was 20-40% compared to before the injection)]) | +++ (severe edema [+++, (the degree of swelling was 40-60% compared to before the injection)]) | ++++ (extremely severe edema [++++, (the degree of swelling was 60% or more compared to before the injection)]) | ++ (moderate edema [++, (the degree of swelling was 20-40% compared to before the injection)]) | ++++ (extremely severe edema [++++, (the degree of swelling was 60% or more compared to before the injection)]) | ++++ (extremely severe edema [++++, (the degree of swelling was 60% or more compared to before the injection)]) | ++ (moderate edema [++, (the degree of swelling was 20-40% compared to before the injection)]) | ++++ (extremely severe edema [++++, (the degree of swelling was 60% or more compared to before the injection)]) | ++++ (extremely severe edema [++++, (the degree of swelling was 60% or more compared to before the injection)]) | ++ (moderate edema [++, (the degree of swelling was 20-40% compared to before the injection)]) | ++ | ++ | + | ++++ | ++++ | Inflammation (H&E), BA % (w/v) 2.5 ([1]; bile acid single composition 2.5% (w/v), injected rat paw): +++; Inflammation (H&E), BA % (w/v) 5.0 ([1]; bile acid single composition 5.0% (w/v), injected rat paw): +++; degree of inflammation (H&E) in words [1]: Moderate; degree of edema in words (paw of the rats; listed as CDCA 1.0%): Moderate; degree of edema in words (paw of the rats; listed as CDCA 2.5%): “severe” and “extremely severe”; skin lesion (erythema) in words (sole of the rat paws; listed as CDCA 1.0%): Moderate; skin lesion (erythema) in words (sole of the rat paws; listed as CDCA 2.5%): “severe” and “extremely severe”; grade of skin lesion (erythema), Immediately after administration (sole of the rat paws; [4]): ++; grade of skin lesion (erythema), 1 hour after administration (sole of the rat paws; [5]): ++++; grade of skin lesion (erythema), 2 hours after administration (sole of the rat paws; [5]): ++++; grade of skin lesion (erythema), Immediately after administration (sole of the rat paws; [5]): ++; grade of skin lesion (erythema), 1 hour after administration (sole of the rat paws; [6]): ++++; grade of skin lesion (erythema), 2 hours after administration (sole of the rat paws; [6]): ++++; grade of skin lesion (erythema), Immediately after administration (sole of the rat paws; [6]): ++
3 | C[C@H](CCC(=O)NCCS(=O)(=O)O)[C@H]1CC[C@H]2C3CC[C@@H]4C[C@H](O)CC[C@]4(C)[C@H]3C[C@H](O)[C@]12C (stereo partly drawn) [TDCA, 2-[[(4R)-4-[(3R,5R,9S,10S,12S,13R,14S,17R)-3,12-dihydroxy-10,13-dimethyl-2,3,4,5,6,7,8,9,11,12,14,15,16,17-tetradecahydro-1H-cyclopenta[a]phenanthren-17-yl]pentanoyl]amino]ethanesulfonic acid] | ++ | less than 0.74 | ≥ 2.3% | +++ (severe edema [+++, (the degree of swelling was 40-60% compared to before the injection)]) | +++ (severe edema [+++, (the degree of swelling was 40-60% compared to before the injection)]) | ++ (moderate edema [++, (the degree of swelling was 20-40% compared to before the injection)]) | +++ (severe edema [+++, (the degree of swelling was 40-60% compared to before the injection)]) | +++ (severe edema [+++, (the degree of swelling was 40-60% compared to before the injection)]) | ++ (moderate edema [++, (the degree of swelling was 20-40% compared to before the injection)]) | ++++ (extremely severe edema [++++, (the degree of swelling was 60% or more compared to before the injection)]) | ++++ (extremely severe edema [++++, (the degree of swelling was 60% or more compared to before the injection)]) | ++ (moderate edema [++, (the degree of swelling was 20-40% compared to before the injection)]) | ++++ (extremely severe edema [++++, (the degree of swelling was 60% or more compared to before the injection)]) | ++++ (extremely severe edema [++++, (the degree of swelling was 60% or more compared to before the injection)]) | ++ (moderate edema [++, (the degree of swelling was 20-40% compared to before the injection)]) | +++ | ++ | + | +++ | +++ | degree of inflammation (H&E) in words [1]: Moderate; degree of edema in words (paw of the rats; listed as TDCA 2.5%): “severe” and “extremely severe”; skin lesion (erythema) in words (sole of the rat paws; listed as TDCA 1.0%): Moderate; skin lesion (erythema) in words (sole of the rat paws; listed as TDCA 2.5%): “severe” and “extremely severe”; grade of skin lesion (erythema), Immediately after administration (sole of the rat paws; [4]): ++; grade of skin lesion (erythema), 1 hour after administration (sole of the rat paws; [5]): ++++; grade of skin lesion (erythema), 2 hours after administration (sole of the rat paws; [5]): ++++; grade of skin lesion (erythema), Immediately after administration (sole of the rat paws; [5]): ++; grade of skin lesion (erythema), 1 hour after administration (sole of the rat paws; [6]): ++++; grade of skin lesion (erythema), 2 hours after administration (sole of the rat paws; [6]): ++++; grade of skin lesion (erythema), Immediately after administration (sole of the rat paws; [6]): ++

— patent US11298314B2, “Injectable composition for localized fat reduction without pain, edema, and side effects, and method for preparing same” (AMI PHARM CO., LTD., priority 2017, dated 2022)
